The test system of assay [1] is mouse fibroblasts (L-929). Kind of assay: Cytotoxicity assay, L929. The format is cell-based. As to conditions: L929 (fibroblast), 5 days of incubation. How it is done:
(§1) The cytotoxicity of isolated compounds was determined as previously described over a concentration range between […] against two mammalian cell lines: mouse fibroblasts (L-929) and human endocervical adenocarcinoma (KB-3.1). […] Following 5 days of incubation, we determined the minimum concentration of the tested compounds required to achieve 50% growth inhibition, expressed as IC50 values.

Assay [2] has as its system human endocervical adenocarcinoma (KB-3.1). Kind of assay: Cytotoxicity assay, KB3.1. The format is cell-based. The settings on record: KB3.1 (endocervical adenocarcinoma), 5 days of incubation. How it is done: as §1
In assay [3] the test system is Acinetobacter baumanii [DSM 30008]. Kind of assay: Serial dilution assay (MIC). Format: cell-based. As to conditions: Acinetobacter baumannii, DSM30008. The protocol:
(§2) All isolated compounds were assessed for their antimicrobial activity using a serial dilution assay over a concentration range from 67 to 0.5 µg/mL following the previously described protocols. In brief, the antimicrobial activity of all isolated metabolites was assessed by determining their minimum inhibitory concentration (MIC) against a range of different pathogens, including five fungal species: Candida albicans [DSM 1665], Mucor hiemalis [DSM 2656], Schizosaccharomyces pombe [DSM 70572], Rhodotorula glutinis [DSM 10134], and Wickerhamomyces anomalus [DSM 6766], as well as various Gram-positive: Staphylococcus aureus [DSM 346], Bacillus subtilis [DSM 10], Mycolicibacterium smegmatis [ATCC 700084], and Gram-negative bacteria: Acinetobacter baumanii [DSM 30008], Escherichia coli [DSM 1116], Chromobacterium violaceum [DSM 30191], and Pseudomonas aeruginosa [PA14]. In our experiments, gentamicin served as the positive control against most bacteria, while nystatin acted as the positive control against all fungi. For specific microorganisms, namely A. baumannii, B. subtilis, and M. smegmatis, ciprofloxacin, oxytetracycline, and kanamycin were used as positive controls, respectively.

For assay [4], the system named is Bacillus subtilis [DSM 10]. Kind of assay: Serial dilution assay (MIC). The format is cell-based. The settings on record: DSM10, read-out: MIC. The protocol:
as §2

The subject of assay [5] is Candida albicans [DSM 1665]. Kind of assay: Serial dilution assay (MIC). The format is cell-based. As to conditions: DSM1665, read-out: MIC. How it is done: as §2
Assay [6] has as its system Chromobacterium violaceum [DSM 30191]. Kind of assay: Serial dilution assay (MIC). Format: cell-based. The settings on record: DSM30191, read-out: MIC. The protocol: as §2
In assay [7] the test system is Escherichia coli [DSM 1116]. Kind of assay: Serial dilution assay (MIC). The format is cell-based. The settings on record: DSM1116, read-out: MIC. How it is done:
as §2

The test system of assay [8] is Mucor hiemalis [DSM 2656]. Kind of assay: Serial dilution assay (MIC). Format: cell-based. As to conditions: DSM2656, read-out: MIC. How it is done:
as §2

The test system of assay [9] is Mycolicibacterium smegmatis [ATCC 700084]. Kind of assay: Serial dilution assay (MIC). Format: cell-based. The settings on record: Mycolicibacterium smegmatis, ATCC700084; Mycobacterium smegmatis; read-out: MIC. The protocol: as §2
For assay [10], the system named is Pseudomonas aeruginosa [PA14]. Kind of assay: Serial dilution assay (MIC). The format is cell-based. The settings on record: read-out: MIC. The protocol:
as §2

For assay [11], the system named is Rhodotorula glutinis [DSM 10134]. Kind of assay: Serial dilution assay (MIC). The format is cell-based. As to conditions: DSM10134. The protocol: as §2
Assay [12] relates to Schizosaccharomyces pombe [DSM 70572]. Kind of assay: Serial dilution assay (MIC). As to conditions: DSM70572. The format is cell-based. The protocol: as §2
Assay [13] concerns Staphylococcus aureus [DSM 346]. Kind of assay: Serial dilution assay (MIC). The format is cell-based. The settings on record: DSM346, read-out: MIC. How it is done: as §2
Assay [14] concerns Wickerhamomyces anomalus [DSM 6766]. Kind of assay: Serial dilution assay (MIC). The format is cell-based. As to conditions: Hansenula anomala, DSM6766. The protocol:
as §2

In assay [15] the test system is S. aureus (DSM 1104) biofilm formation. Kind of assay: Biofilm inhibition assay (Crystal Violet staining). Format: cell-based, Staphylococcus aureus. As to conditions: for inhibitory activity on S. aureus biofilm formation (in words): 125–7.8 µg/mL; for Biofilm inhibition (% ± SD): S. aureus (DSM 1104); for Biofilm inhibition (% ± SD) / inhibition at 7.8 µg/mL: 7.8 µg/ml; for inhibition at 7.8 µg/mL / inhibition at 15.62 µg/mL / inhibition at 31.25 µg/mL / inhibition at 62.5 µg/mL / inhibition at 125 µg/mL: Staphylococcus aureus, DSM1104, S. aureus (DSM 1104), read-out: Biofilm inhibition (% ± SD). The protocol:
The compounds were evaluated for their ability to inhibit S. aureus (DSM 1104) biofilm formation, following the established procedure. Briefly, serially diluted compounds (125–7.8 µg/mL) were co-incubated with S. aureus in 96-well plates in CASO medium supplemented with 4% of glucose (see Supplementary Materials). Biofilm inhibition was assessed by using Crystal Violet staining after […], with microporenic acid A serving as a positive control and methanol as solvent control.
Biofilm inhibition assays were condu cted acco rding to th e methodolo g y previousl y described (Soliga et al., 2021), targeting the inhibition of biofilm formation in Staphylococcus aureus […]
S. aureus were cultured i n LB and CASO medium at 37 °C for 18 h, respect ivel y, in a shaker at 120 rpm after being thawed from a -20 °C stock solution. The culture's optical densit y at 600 nm (OD600) was measured and adjusted to a 0.1 McFarland standard in M63 minimal medium supplemented with necessar y nutrients and CASO medi um with 4% glucose for S. aureus, respectively. Microtiter plates were loaded with 150 µL of the bacterial suspension containing s eriall y diluted test compounds (7.8 -125 µg/m L) and incubated for 24 h at 37 °C. The evaluation of biofilm inhibition was performed by staining the biofilm with 0.1% cr ystal violet (CV). After staining, the plates were washed, and the biofilm dissolved in 95% ethanol. The absorbance of the dissolved biofilm was measured at 530 nm using a plat e reader. Negative control involved methanol (2.5%) while microporenic acid A at a concentration range of 7.8 to 125 µg/mL were used as the positive control for S. aureus (Chepkirui et al., 2018). All experiments were performed three times, and the standard deviation (SD) was maintained at or below 15% for S. aureus .
Differences between sam ples and the control grou p were determined b y a t wo-tailed Student’s t-test. Statistical significan ce was defined as p < 0.01. Anal ysis was carri ed out using GraphPad Prism 9® (GraphPad Software, San Diego, CA, USA). […]

The test system of assay [16] is lung cancer (A-549) cell line. Kind of assay: Cytotoxicity assay, A549. Format: cell-based. The settings on record: Homo sapiens, 120 h; A549 (lung), 5 days of incubation; read-out: IC50.
The test system of assay [17] is breast cancer (MCF-7) cell line. Kind of assay: Cytotoxicity assay, MCF-7. As to conditions: Homo sapiens, MCF7, 120 h; MCF-7 (breast), 5 days of incubation; read-out: IC50. Format: cell-based.
In assay [18] the test system is S. aureus. Further details: method as in doi:10.1016/j.phytol.2021.03.003. The settings on record: cited from earlier work.
Assay [19] has as its system Curvularia lunata. Further details: method as in doi:10.1016/j.phytol.2021.03.003. The settings on record: cited from earlier work.

Structures are written as SMILES. ≈ marks a conversion by molar mass, not a printed value.

As for `CCC(C)/C=C(C)/C=C/C(=O)C1=C(O)[C@H]([C@H](O)c2ccc(O)cc2)NC1=O` (stereo partly shown) [Compound 2, Prototenellin D], the “IC50 (µM)” value in [1] and in assay [2] was “weak or no activity” in each case. In addition, the IC50 in [1] (Mus musculus, L929, 120 h) stood at 70.1 µM; in [2] (Homo sapiens, KB 3-1, 120 h) it was 64.7 µM. Also, the MIC in assay [3], in [4], in assay [5], in assay [6], in [7] and in assay [8] was > 67 µg/mL in each case. Besides, the MIC in [9], in assay [10], in assay [11], in assay [12], in assay [13] and in [14] was > 67 µg/mL each time. Also, the “inhibitory activity on S. aureus biofilm formation (in words)” value in assay [15] is “promising activities in a dose-dependent manner”. Further, the “Biofilm inhibition (% ± SD)” value in assay [15] (listed as prototenellin D (2)) is on record as “more than 50%”. In [15], the inhibition at 7.8 µg/mL turned out to be 53 ± 7%. Also, the inhibition at 15.62 µg/mL in [15] was determined as 56 ± 8%. Moreover, in [15], the inhibition at 31.25 µg/mL was determined as 80 ± 10%. In addition, the inhibition at 62.5 µg/mL in assay [15] is 83 ± 9%. For the same compound, the inhibition at 125 µg/mL in assay [15] worked out at 84 ± 17%.
With `CCC(C)/C=C(C)/C=C/C(=O)c1c(O)c(-c2ccc(O)cc2)cn(O)c1=O` (stereo not shown) [Compound 4, Tenellin], the 50% inhibitory concentration (IC50) in assay [1] (Mus musculus, L929, 120 h) worked out at 0.79 µM; in assay [2] (Homo sapiens, KB 3-1, 120 h) it was 0.79 µM; in [16] it was 0.24 µM; in assay [17] it was 2 µM. In addition, the MIC is > 67 µg/mL in [3]; 8.3 µg/mL (≈ 22.5 µM) in assay [4]; 66.6 µg/mL (≈ 180 µM) in [5]; > 67 µg/mL in assay [6]; > 67 µg/mL in assay [7]; 66.6 µg/mL (≈ 180 µM) in [8]. Also, the MIC is > 67 µg/mL in [9]; > 67 µg/mL in [10]; > 67 µg/mL in assay [11]; > 67 µg/mL in assay [12]; 16.6 µg/mL (≈ 44.9 µM) in assay [13]; > 67 µg/mL in assay [14]. The results for the MIC in assay [18] and in assay [19] were 6.25 µg/mL (≈ 16.9 µM) and 3.13 µg/mL (≈ 8.47 µM), respectively. Besides, the “inhibitory activity on S. aureus biofilm formation (in words)” value in assay [15] is “promising activities in a dose-dependent manner”. Moreover, the “Biofilm inhibition (% ± SD)” value in [15] (listed as tenellin (4)) is “ca. 30%”. For the same compound, the inhibition at 7.8 µg/mL in [15] worked out at 36 ± 13%. The inhibition at 15.62 µg/mL in assay [15] was 51 ± 19%. Further, in [15], the inhibition at 31.25 µg/mL worked out at 73 ± 15%. Moreover, the inhibition at 62.5 µg/mL in assay [15] turned out to be 80 ± 4%. In addition, the inhibition at 125 µg/mL in [15] amounted to 78 ± 5%.
Take `CCC(/C=C(C)/C=C/C(=O)c1c(O)c(-c2ccc(O)cc2)cn(O)c1=O)CO` (stereo not shown) [Compound 5, 15-Hydroxytenellin]: the IC50 in [1] was 6.8 µM; in assay [1] (Mus musculus, L929, 120 h), 4.9 to 6.8 µM; in [2] (Homo sapiens, KB 3-1, 120 h), 4.9 to 6.8 µM; in [2], 6 µM; in [16], 2.6 µM; in [17] it was 8.1 µM. Further, the MIC in [3] was > 67 µg/mL; in [4] it was 66.6 µg/mL (≈ 173 µM); in assay [5], > 67 µg/mL; in [6], > 67 µg/mL; in [7], > 67 µg/mL; in assay [8], > 67 µg/mL. Moreover, the MIC was > 67 µg/mL in assay [9]; > 67 µg/mL in [10]; > 67 µg/mL in assay [11]; > 67 µg/mL in assay [12]; 66.6 µg/mL (≈ 173 µM) in [13]; > 67 µg/mL in [14]. Further, the inhibition at 15.62 µg/mL in assay [15] worked out at 47 ± 12%. Also, the inhibition at 31.25 µg/mL in assay [15] is 78 ± 5%. The inhibition at 62.5 µg/mL in [15] was found to be 85 ± 2%. For the same compound, the inhibition at 125 µg/mL in assay [15] came out at 86 ± 1%.

As usually defined, the IC50 is the concentration needed to halve the response being measured. Broadly, the MIC is the smallest concentration in the dilution series that meets the test's criterion for growth inhibition. The term inhibition denotes the drop in the measured response relative to a control, in per cent.

The values are drawn from PMC10821025, “Bioprospection of Tenellins Produced by the Entomopathogenic Fungus Beauveria neobassiana” (Journal of Fungi, 2024).
